Several values for one entry are separate records, joined by “and”; a condition that tells them apart may be missing. Equal values may be shown once. Activity calls are given as the source filed them. The calls are words filed in the database; no cut-off is given here.

Data set [1] concerns Mus musculus. The experiment in a line: Anticonvulsant activity in ip dosed Kunming mouse assessed as MES-induced hind limb extension administered 0.5 hrs before MES stimulation. It is filed as functional.
Data set [2] relates to Mus musculus. The data set can be described thus: Anticonvulsant activity in ip dosed Kunming mouse assessed as reduction in ScPTZ-induced seizure administered 0.5 hrs before ScPTZ stimulation. It is filed as functional.
Data set [3] can be described thus: Neurotoxicity against ip dosed Kunming mouse assessed as time remained in rod measured at 0.5 hrs by rotarod test. The class given is toxicity, organism-based. Conditions: in vivo.
Data set [4] is filed under the species Homo sapiens. The experiment in a line: Inhibition of human LDH1 assessed as remaining activity at 0.5 mM using sodium pyruvate as substrate by UV-VIS spectrophotometry method relative to control.
The species named for data set [5] is Homo sapiens. The data set can be described thus: Inhibition of human LDH5 assessed as remaining activity at 0.5 mM using sodium pyruvate as substrate by UV-VIS spectrophotometry method relative to control.
Data set [6] concerns Mus musculus. The experiment in a line: Anticonvulsant activity in Kunming mouse assessed as reduction in Sc3-MP-induced clonic seizure rate at 300 mg/kg, ip administered 0.5 hrs before Sc3-MP stimulation relative to control. The class given is functional. Also on record: scale not given: the % may be the effect or the level left.
Data set [7] deals with Mus musculus. The experiment in a line: Anticonvulsant activity in Kunming mouse assessed as reduction in Sc3-MP-induced tonic seizure rate at 300 mg/kg, ip administered 0.5 hrs before Sc3-MP stimulation relative to control. The class given is functional. Also on record: scale not given: the % may be the effect or the level left.
Data set [8] relates to Mus musculus. The experiment in a line: Anticonvulsant activity in Kunming mouse assessed as MES-induced hind limb extension at 100 mg/kg, ip administered 0. 5 to 2 hrs before MES stimulation. It is filed as functional, organism-based.
The nature of data set [9]: Neurotoxicity against Kunming mouse assessed as time remained in rod at 100 mg/kg, ip administered 0.5 to 2 hrs by rotarod test. The class given is toxicity, organism-based. The settings on record: in vivo.
The test system of data set [10] is Mus musculus. The data set can be described thus: Anticonvulsant activity in Kunming mouse assessed as MES-induced hind limb extension at 50 mg/kg, ip administered 0.5 and 2 hrs before MES stimulation relative to control. It is filed as functional.
Data set [11] relates to Mus musculus. The data set can be described thus: Anticonvulsant activity in Kunming mouse assessed as reduction in ScPTZ-induced seizure at 300 mg/kg, ip administered 0.25 to 2 hrs before ScPTZ stimulation relative to control. It is filed as functional. Also on record: scale not given: the % may be the effect or the level left.
Data set [12] concerns Mus musculus. The data set can be described thus: Anticonvulsant activity in Kunming mouse assessed as reduction in ScPTZ-induced seizure at 100 mg/kg, ip administered 0.25 to 2 hrs before ScPTZ stimulation relative to control. The class given is functional.
Data set [13] relates to Mus musculus. The data set can be described thus: Anticonvulsant activity in Kunming mouse assessed as reduction in ScPTZ-induced clonic seizure at 300 mg/kg, ip administered 0.5 hrs before ScPTZ stimulation relative to control. The class given is functional. More on the design: scale not given: the % may be the effect or the level left.
Data set [14] relates to Mus musculus. The experiment in a line: Anticonvulsant activity in Kunming mouse assessed as reduction in ScPTZ-induced clonic seizure at 100 mg/kg, ip administered 0.5 hrs before ScPTZ stimulation relative to control. The class given is functional. Also on record: scale not given: the % may be the effect or the level left.
For data set [15], the system named is Mus musculus. The experiment in a line: Anticonvulsant activity in Kunming mouse assessed as reduction in ScPTZ-induced tonic seizure rate at 300 mg/kg, ip administered 0.5 hrs before ScPTZ stimulation relative to control. The class given is functional. Also on record: scale not given: the % may be the effect or the level left.
Data set [16] relates to Mus musculus. The data set can be described thus: Anticonvulsant activity in Kunming mouse assessed as reduction in ScPTZ-induced tonic seizure rate at 100 mg/kg, ip administered 0.5 hrs before ScPTZ stimulation relative to control. The class given is functional. Also on record: scale not given: the % may be the effect or the level left.
Data set [17] concerns Mus musculus. The data set can be described thus: Anticonvulsant activity in Kunming mouse assessed as reduction in Sc3-MP-induced seizure at 300 mg/kg, ip administered 0.25 to 2 hrs before Sc3-MP stimulation relative to control. It is filed as functional. More on the design: scale not given: the % may be the effect or the level left.
Data set [18] has as its system Mus musculus. The experiment in a line: Anticonvulsant activity in Kunming mouse assessed as reduction in Sc3-MP-induced seizure ip dosed measured at 0.5 hrs before Sc3-MP stimulation. It is filed as functional.
The subject of data set [19] is Mus musculus. The experiment in a line: […] activity in ip dosed Kunming mouse assessed as reduction in formalin-induced paw licking administered 0.5 hrs before formalin stimulation. It is filed as functional.
Data set [20] in a line: Protective index, ratio of TD50 for neurotoxicity against ip dosed Kunming mouse assessed as time remained in rod measured at 0.5 hrs by rotarod test to ED50 for anticonvulsant activity in ip dosed Kunming mouse assessed as MES-induced hind limb extension administered 0.5 hrs. Conditions: in vivo, read-out: PI. The class given is toxicity, organism-based.
A short description of data set [21]: Protective index, ratio of TD50 for neurotoxicity against ip dosed Kunming mouse assessed as time remained in rod measured at 0.5 hrs by rotarod test to ED50 for anticonvulsant activity in ip dosed Kunming mouse assessed as reduction in ScPTZ-induced seizure administered 0.5 hrs before ScPTZ stimulation. It is filed as toxicity, organism-based. Conditions: in vivo, read-out: PI. For orientation: In the rotarod test animals must keep their balance on a rotating rod.

Data set [22] can be described thus: Protective index, ratio of TD50 for neurotoxicity against ip dosed Kunming mouse assessed as time remained in rod measured at 0.5 hrs by rotarod test to ED50 for anticonvulsant activity in ip dosed Kunming mouse assessed as reduction in Sc3-MP-induced seizure administered 0.5 hrs before Sc3-MP stimulation. Conditions: in vivo, read-out: PI. It is filed as toxicity, organism-based.

The nature of data set [23]: Protective index, ratio of TD50 for neurotoxicity against ip dosed Kunming mouse assessed as time remained in rod measured at 0.5 hrs by rotarod test to ED50 for […] activity in ip dosed Kunming mouse assessed as reduction in formalin-induced paw licking administered 0.5 hrs before formalin stimulation. It is filed as toxicity, organism-based. Conditions: in vivo, read-out: PI.

The subject of data set [24] is Mus musculus. The data set can be described thus: Anticonvulsant activity in Kunming mouse assessed as MES-induced hind limb extension at 100 mg/kg, ip administered 0. 5 to 4 hrs before MES stimulation relative to control. The class given is functional.

Usually ED50 stands for the midpoint of the dose-response relation. Usually TD50 stands for the dose at which the toxic effect under study appears in half of the subjects. Take `NC(=O)N1c2ccccc2C=Cc2ccccc21` [CARBAMAZEPINE]: the ED50 was 18.1 mg/kg and 76.5 µmol/kg in [1]; > 100 mg/kg and > 423 µmol/kg in [2]. For the same compound, in [3], the TD50 at 0.5 h is 303 µmol/kg. In addition, the Activity in data set [4] and in data set [5] was 100% throughout.
Take `CCCC(CCC)C(=O)O`: the Activity in data set [4] and in data set [5] was 100% each time.
For `COc1cc(OC)c(OC)cc1/C=C/COC(=O)/C=C/c1cc(OC)c(OC)cc1OC`, the Activity was 100% in [6]; 75% in data set [7]; “Non-Toxic” in [9]; 50% in data set [11]; 100% in [13]; 100% in data set [14]. Moreover, the Activity was 25% in [15], 100% in data set [16], 0% in data set [17] and 25 - 100% in data set [24]. In addition, the outcome in [8] was Active. The outcome in data set [10] and in [12] was inactive. The ED50 was 165 µmol/kg and 73.5 mg/kg in [1]; > 200 mg/kg and 450 µmol/kg to 675 µmol/kg in data set [2]; > 300 mg/kg and > 675 µmol/kg in [18]; 180 to 225 µmol/kg in data set [19]. In addition, the TD50 at 0.5 h in [3] was > 2250 µmol/kg and > 1000 mg/kg. The selectivity ratio at 0.5 h in data set [20] was more than 13.6; in data set [21], 5; in data set [22], 3.3; in [23] it was 12.5.

The values above are taken from ChEMBL document CHEMBL4311969, “Polygala tenuifolia-Acori tatarinowii herbal pair as an inspiration for substituted cinnamic α-asaronol esters: Design, synthesis, anticonvulsant activity, and inhibition of lactate dehydrogenase study” (Eur J Med Chem, 2019).
